One experiment deals with porcine coronary artery. Description: in vitro Coronary vasodilation effect (PGF2α-contracted strip). The experiment is classed as cell-based. Conditions: Sus scrofa; 25% of papaverine-induced relaxation; read-out: Coronary Vasodilation (ED25 μM). As for the experimental part:
3. in vitro Coronary vasodilation effect
The right portion of a porcine coronary artery was isolated, and cut into 3 mm wide strip which was suspended in a organ bath filled with 20 ml of Krebs--Henseleit solution (37° C.). During the experiment the bath solution was aerated with 95% O2 +5% Co2. The change in tension was measured using an isometric transducer. After load tension was stabilized, the preparation was contracted with PGF2α (10^-6 -[…]). After the contract level had stabilized the test compound was cumulatively applied from 10^-8 to 10^-5 M. Papaverine (10^-4 M) was used to obtain maximal relaxation at the end of the experiment. The result was expressed as the percentage of papverine-induced relaxation, and the concentration of the test compound which gave 25% relaxation of papaverine-induced relaxation was defined as ED25. The compound with low ED25 value has great coronary vasodilation effect.

Experiment [1] has as its system Mouse Cerebral Ischemia/Reperfusion. The experiment in a line: in vivo Behavior test (Mouse Cerebral Ischemia/Reperfusion Test). Also noted: species or system mouse (ICR strain, male). How it is done:
Bilateral common carotid arteries of both sides of ICR strain male mice (about 8 weeks old) were occluded for 5 minutes while lightly anesthetized, then blood was reperfuged. The test compounds were intraperitoneally administered 10 minutes before occlusion and within 3 hours after reperfusion. Since a day after reperfusion, behavior disorder was evaluated by spontaneous motor activity of exploratory behavior, traction test and passive avoidance test. That is, spontaneous motor activity was evaluated as follows. Motor activity was measured by tilting cage method for 30 minutes since immediately after a mouse was placed in a measurement cage. If the motor activity was at least more than (average of spontaneous motion of the group received solvent) +2×SD, the compound was evaluated as "active." In traction test, both fore limbs of the mouse were placed on the horizontally stretched wire. If the mouse put its hind limb within 2 seconds, the compound was estimated as "active.". In passive avoidance test, a step-through type apparatus was used, and as acquisition trial of blood reperfusion, electrical shock (about 0.5 mA, 3 seconds) was given to the mice as soon as the whole body of mice entered the black room and on the next day test trial was carried out. The mouse which stayed in a light room for at least 300 seconds was estimated as an active example. In all tests, the test compound which provided at least 50% of active animals was determined as "active." The results are shown in Table 5.

Experiment [2] has as its system Brain microsomal fractions. Description: in vitro Anti-lipid peroxidation effect (TBAR production, Fe3+-ADP/NADPH). The experiment is classed as biochemical, rat (SD strain, male). How it is done: 1. in vitro Anti-lipid peroxidation effect
Brain microsomal fractions were prepared from male rats of SD strain, and a portion (0.2 mg protein) was incubated at 37° C. for 15 minutes with a mixture of Fe^3+ (0.1 mM)--ADP (0.5 mM) in the presence or absence of the test compound, in final volume of 1 ml of 10 mM HEPES, 150 mM KCl, 0.2 mM NADPH, pH 7.4. After incubation, 1.5 ml of TCA-TBA-HCl reagent (16.7% trichloroacetic acid, 0.4% thiobarbituric acid, 0.278N hydrochloric acid) was added and the reaction mixture was heated in a boiling water for 15 minutes. After cooling in ice-bath, the reaction mixture was centrifuged, and the absorbance of the supernatant at 535 nm was measured. The amount of thiobarbituric acid reactive substance (TBAR) was obtained by calculation using an extinction coefficient of 1.56×10^5 […]. […] The results are shown in Table 1A for compounds of the formulas IA, IB, and IC, respectively. The compounds with highest inhibition rate have the greatest anti-lipid peroxidation effect.

Experiment [3] has as its system pig right coronary artery. The experiment in a line: in vitro Ca-antagonism (high K+ induced 45Ca-influx). The experiment is classed as cell-based. Conditions: Sus scrofa, K+ 75 mM. As for the experimental part:
2. in vitro Ca-antagonism
A strip of pig right coronary artery was depolarized with high K^+ (75 mM) for 30 minutes to induce voltage dependent ^45 Ca-influx. The extracellular ^45 Ca was chelated by adding EGTA and removed by washing, then the strip was lysed at 100° C. ^45 Ca in this lysate was measured as intracellular ^45 Ca by a scintillation counter. The concentration of the test compound was 10^-7, 10^-6, 10^-5 M, and applied until depolarization by K^+ was completed. Ratio of inhibition at various concentrations of the test compounds for increasing the intracellular ^45 Ca by K^+ was determined. The compound with high inhibition ratio has strong Ca-antagonism.

Another experiment relates to cerebral blood flow. Description: Normal cerebral flow stream test. The experiment is classed as in vivo. Conditions: Rattus norvegicus, iv; urethane anesthetized; laser Doppler; read-out: active dose (increase in cerebral blood flow). How it is done:
6. Normal cerebral flow stream test
Experiment was carried out using rats anesthetized with urethane. After a cannulas for blood pressure monitoring and that for drug administration were inserted into femoral artery and vein, respectively. Temporal bone was cut away on a brain stereotaxis apparatus and a probe for measurement of cerebral blood flow was placed on dura mater. The cerebral blood flow was measured using a laser Dopplar blood flow meter. Firstly, a solvent of the test compound was administered intravenously and then three doses of the compound were administered in order of dose every fifteen-minute intervals. When an average of increase in cerebral blood flow due to the test compound minus 2×SE was larger than that of change in cerebral blood flow due to the solvent, the dose was estimated as "active". The compound (1B) was active in the dose of not less than 3 mg/kg i.v.

For experiment [4], the system named is KCN-induced respiratory arrest. Description: in vivo Anti-anoxia effect (KCN lethal dose). Also noted: species or system mouse (ICR strain, male). Conditions: Mus musculus, po; * methansulfonate; KCN 3.0 mg/kg. As for the experimental part: 7. in vivo Anti-anoxia effect
A group (5 mice) of ICR strain male mice (about 8-week-old) were used. One or two hours after the test compounds were orally administered, a lethal dose (3.0 mg/kg) of KCN was administered into tail vein. A period of time to respiratory arrest and a survival rate were measured. The test compound which provided at least 50% of active example was determined as "active".

The test system of a further experiment is ventricular arrhythmia. Description: in vivo Ischemic heart/reperfusion test. Conditions: Rattus norvegicus, iv. How it is done:
4. in vivo Ischemic heart/reperfusion test
Experiment was carried out using rats anesthetized with pentobarbital under artificial respiration. After the forth rib was excised, heart was exposed by thoracotomy, and the thread was placed under the left coronary artery at it origin. Then, the heart was returned and a thread was passed in a tube. Compounds were applied through tail vein. After 10 minutes, the thread in the tube was pulled to occlude coronary artery. Five minutes after occlusion, the thread was loosened again for reperfusion. Then, ventricular arrhythmia was recorded on electrocardiogram (lead II), by sticking needle electrodes into a right fore-limb and a left hind-limb. Duration time of ventricular tachycardia and occurrence of ventricular fibrillation caused after reperfusion were compared between a group receiving the test compounds and a similarly treated vehicle group. If either of two parameters of the group that received the test compound became less than half of that of the group that received the vehicle, the test compound was estimated as "active".

Where [5] appears, read: ip, route cell empty (method: intraperitoneally).
Where [6] appears, read: read-out: Minimal Effective Dose (mg/kg, i.v.).

One may read the inhibition as the relative decrease from the control value, in per cent.

Where two headings read alike, the source gives them in different places. Where only a bound is given, the exact number is not on record here.

Turning to `CC(C)c1ccc(CN2CCN(C(c3ccccc3)c3ccc(Cl)cc3)CC2)c(=O)c(O)c1` (centres unmarked) [Compound 1A, 7-[4-(4-chlorobenzhydryl)piperazino-1-methyl]-2-hydroxy4-isopropyl-2,4,6-cycloheptatrien-1-one], the EC25 with porcine coronary artery is greater than 10000 nM. In addition, the minimal effective dose in experiment [1] (setting [5]) was greater than 10 mg/kg. In experiment [2], the “Anti-Lipid Peroxidation (% inhibition) 10 μM” value came out at 6.7% and the “Anti-Lipid Peroxidation (% inhibition) 50 μM” value is less than 21.3%. The same compound yielded an inhibition at 10 µM in experiment [3] of 44%.

Take `COc1cc(C(C)C)ccc(C2Sc3ccccc3N2CCc2ccccc2)c1=O` (centres unmarked) [Compound 1B, 2-(2'-oxo-3'-methoxy-5'-isopropyl-3',5',7'-cycloheptatrienyl)-3-phenethylbenzothiazoline]: the minimal effective dose in experiment [1] (ip) came out at 0.1 mg/kg. Also, in experiment [2], the “Anti-Lipid Peroxidation (% inhibition) 10 μM” value was found to be 91.8% and the “Anti-Lipid Peroxidation (% inhibition) 50 μM” value was found to be 93.1%. Also, the minimal effective dose in the experiment with cerebral blood flow was no less than 3 mg/kg.

As to `CC(C)c1ccc(CN2CCN(C(c3ccc(F)cc3)c3ccc(F)cc3)CC2)c(=O)c(NCCN(C)C)c1` [Compound 1C, 7-[4-(4,4'-difluorobenzhydryl)piperazino-1-methyl]-2-(N-2-dimethylaminoethylamino)-4-isopropyl-2,4,6-cycloheptatrien-1-one], in experiment [2], the “Anti-Lipid Peroxidation (% inhibition) 10 μM” value came out at 59.4% and the “Anti-Lipid Peroxidation (% inhibition) 50 μM” value came out at 95.3%. For the same compound, in experiment [3], the inhibition at 10 µM was 81%. In addition, in experiment [4], the minimal effective dose was determined as 100 mg/kg.

On to `COc1cc(C(C)C)ccc(CN2CCN(C(c3ccccc3)c3ccc(Cl)cc3)CC2)c1=O` (centres unmarked) [Compound 2A, 7-[4-(4-chlorobenzhydryl)piperazino-1-methyl]-4-isopropyl-2-methoxy-2,4,6-cycloheptatrien-1-one], for which the EC25 with porcine coronary artery came to 1800 nM. In experiment [1] (ip, # methanesulfonate, route cell empty (method: intraperitoneally)), the minimal effective dose came to 3 mg/kg. For the same compound, in experiment [2], the “Anti-Lipid Peroxidation (% inhibition) 10 μM” value is 28.8% and the “Anti-Lipid Peroxidation (% inhibition) 50 μM” value turned out to be 84.7%. The compound also displayed a minimal effective dose in the experiment with ventricular arrhythmia (value marked # (methanesulfonate per footnote of Table 5)) of 0.3 mg/kg. Besides, at 10 µM the inhibition in experiment [3] was 61%.

In experiment [1] (ip), `COc1cc(C(C)C)ccc(C2Sc3ccccc3N2C)c1=O` (centres unmarked) [Compound 2B, 2-(2'-oxo-3'-methoxy-5'-isopropyl-3',5',7'-cycloheptatrienyl)-3-methylbenzothiazoline] returned a minimal effective dose of 1 mg/kg. In experiment [2], the “Anti-Lipid Peroxidation (% inhibition) 10 μM” value is on record as 95.5%.

In the case of `COc1cc(C(C)C)ccc(C2Sc3ccccc3N2Cc2ccncc2)c1=O` (centres unmarked) [Compound 6B, 2-(2'-oxo-3'-methoxy-5'-isopropyl-3',5',7'-cycloheptatrienyl)-3-(4-picolyl)benzothiazoline], the minimal effective dose in experiment [1] (iv) was less than 1 mg/kg. Moreover, in experiment [2], the “Anti-Lipid Peroxidation (% inhibition) 10 μM” value came to 93.1% and the “Anti-Lipid Peroxidation (% inhibition) 50 μM” value turned out to be 96.6%.

Take `COc1cc(C(C)C)ccc(CN2CCN(C(c3ccc(F)cc3)c3ccc(F)cc3)CC2)c1=O` [Compound 7A, 7-[4-(4,4'-difluorobenzhydryl)piperazino-1-methyl]-4-isopropyl-2-methoxy-2,4,6-cycloheptatrien-1-one]: in the experiment with porcine coronary artery, the EC25 came out at 1900 nM. Further, the minimal effective dose in experiment [1] (setting [5]) is less than 10 mg/kg. For the same compound, in experiment [2], the “Anti-Lipid Peroxidation (% inhibition) 10 μM” value worked out at 27.2% and the “Anti-Lipid Peroxidation (% inhibition) 50 μM” value came out at 59.2%. Further, the minimal effective dose in the experiment on ventricular arrhythmia (setting [6]) was less than 5 mg/kg. Also, in experiment [3], the inhibition at 10 µM was 100%.

Regarding `COc1cc(C(C)C)ccc(C2Sc3ccccc3N2CCCN(C)CCc2ccccc2)c1=O` (centres unmarked) [Compound 10B, 2-(2'-oxo-3'-methoxy-5'-isopropyl-3',5',7'-cycloheptatrienyl)-3-[3-(N-methyl-N-phenethylamino)propyl]benzothiazoline], in experiment [2], the “Anti-Lipid Peroxidation (% inhibition) 10 μM” value is 93.0% and the “Anti-Lipid Peroxidation (% inhibition) 50 μM” value was 94.5%. For the same compound, the minimal effective dose with ventricular arrhythmia (setting [6]) was less than 5 mg/kg.

On to `COc1cc(C(C)C)ccc(C2Sc3ccccc3N2CCN(C)C)c1=O` (centres unmarked) [Compound 11B, 2-(2'-oxo-3'-methoxy-5'-isopropyl-3',5',7'-cycloheptatrienyl)-3-[2-(N,N-dimethylamino)ethyl]benzothiazoline], for which the values for the minimal effective dose (in experiment [1] (ip); with ventricular arrhythmia (setting [6])) were 1 mg/kg and less than 5 mg/kg, respectively. Moreover, the “Anti-Lipid Peroxidation (% inhibition) 10 μM” value in experiment [2] was 89.3%.

Consider `COc1cc(C(C)C)ccc(C2Sc3ccccc3N2CCCN(C)C)c1=O` (centres unmarked) [Compound 12B, 2-(2'-oxo-3'-methoxy-5'-isopropyl-3',5',7'-cycloheptatrienyl)-3-[3-(N,N-dimethylamino)propyl]benzothiazoline], for which the minimal effective dose in experiment [1] (ip) was 1 mg/kg. In addition, the “Anti-Lipid Peroxidation (% inhibition) 10 μM” value in experiment [2] was determined as 89.4%.

For the compound `COc1cc(C(C)C)ccc(CN2CCCN(C(c3ccc(F)cc3)c3ccc(F)cc3)CC2)c1=O` [Compound 23C, 7-[4-(4,4'-difluorobenzhydryl)hexahydro-1H-1,4-diazepin-1-ylmethyl]-4-isopropyl-2-methoxy-2,4,6-cycloheptatrien-1-one], in experiment [2], the “Anti-Lipid Peroxidation (% inhibition) 10 μM” value was determined as 21.6% and the “Anti-Lipid Peroxidation (% inhibition) 50 μM” value was determined as 90.7%. The compound further returned an inhibition at 10 µM in experiment [3] of 86%.

The values are drawn from US5594144A, “Tropolone derivatives and pharmaceutical composition thereof for preventing and treating ischemic diseases” (The Upjohn Company, priority 1990, dated 1997).
